Assay results taken from patent US20060069132A1, “Azolecarboxamide herbicides” (priority 2004, published 2006).

Key:
[1] = tested on: small flower umbrella sedge; test: Test B flooded paddy test; assay type: in vivo, Cyperus difformis; details: Cyperus difformis, 336 h, 1000 g ai/ha, scale 0 to 100 (0 no effect, 100 complete control), read-out: Sedge, Umbrella plant response rating
Summary of the method: (§1)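 Formulated test chemicals went onto postemergence plants measuring 2 to 18 cm, at one to four leaves. For the paddy assay, species had reached two leaves. Scoring took place 13–15 days later by eye, relative to untreated plants, using 0 for no effect up to 100 for full control.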

barnyardgrass [2] = test: Test B pre-/postemergence herbicide test; assay type: in vivo, Echinochloa crus-galli
Summary of the method: (§2)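 Plants compared with untreated controls 13–15 days post-treatment and given a visual 0–100 injury score. Applications: preemergence to seeds; postemergence at 1- to 4-leaf (2–18 cm); paddy species flooded, 2-leaf stage. Vehicle non-phytotoxic, surfactant included.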

large crabgrass = test: Test B pre-/postemergence herbicide test; assay type: in vivo, Digitaria sanguinalis
Summary of the method: (§3)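 Visual rating, 0 (no effect) to 100 (complete control), versus untreated controls after 13–15 d in greenhouse. Pre- and postemergence applications (postemergence plants 2–18 cm, 1–4 leaves); flooded paddy arm at 2-leaf stage. Compounds in non-phytotoxic solvent plus surfactant.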

cocklebur = test: Test B pre-/postemergence herbicide test; assay type: in vivo, Xanthium strumarium
Summary of the method: as §2

wild oat = test: Test B postemergence herbicide test; assay type: in vivo, Avena fatua; details: Avena fatua, post-emergence, 336 h; 125 g ai/ha; visual rating, scale 0 (no effect) to 100 (complete control); read-out: Oat, Wild plant response rating
Summary of the method: (§4)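 After treating 2-leaf paddy plants or 2–18 cm postemergence plants (1 to 4 leaves) with formulated chemical, researchers kept them in a greenhouse for 13–15 days. Effects were judged visually versus controls: 0 indicates none, 100 total control.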

giant foxtail = test: Test B pre-/postemergence herbicide test; assay type: in vivo, Setaria faberi
Summary of the method: as §3

Surinam grass = test: Test B pre-/postemergence herbicide test; assay type: in vivo, Urochloa decumbens; details: 125 g ai/ha
Summary of the method: as §3

pigweed = test: Test B pre-/postemergence herbicide test; assay type: in vivo, Amaranthus retroflexus; details: 125 g ai/ha
Summary of the method: as §3

ducksalad = test: Test B flooded paddy test; assay type: in vivo, Heteranthera limosa; details: Heteranthera limosa, 336 h, 1000 g ai/ha, scale 0 to 100 (0 no effect, 100 complete control), read-out: Ducksalad plant response rating
Summary of the method: as §1

rice = test: Test B flooded paddy test; assay type: in vivo, Oryza sativa; details: Oryza sativa, 336 h, 1000 g ai/ha, scale 0 to 100 (0 no effect, 100 complete control), read-out: Rice plant response rating
Summary of the method: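 Read-out: visual comparison with controls, scored 0 to 100, where 100 means complete control and 0 no effect. Formulated chemicals were applied postemergence to plants 2–18 cm tall (1- to 4-leaf), or to flooded-paddy plants at the 2-leaf stage, then held 13 to 15 days under glass.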

morningglory = test: Test B pre-/postemergence herbicide test; assay type: in vivo, Ipomoea coccinea; details: 125 g ai/ha
Summary of the method: as §2

barnyardgrass [3] = test: Test B flooded paddy test; assay type: in vivo, Echinochloa crus-galli; details: Echinochloa crus-galli, 336 h, 1000 g ai/ha, scale 0 to 100 (0 no effect, 100 complete control), read-out: Barnyardgrass plant response rating
Summary of the method: as §1

lambsquarters = test: Test B pre-/postemergence herbicide test; assay type: in vivo, Chenopodium album; details: 125 g ai/ha
Summary of the method: as §3

velvetleaf = test: Test B pre-/postemergence herbicide test; assay type: in vivo, Abutilon theophrasti; details: 125 g ai/ha
Summary of the method: as §3

wheat = test: Test B postemergence herbicide test; assay type: in vivo, Triticum aestivum; details: Triticum aestivum, post-emergence, 336 h, 125 g ai/ha; visual rating, scale 0 (no effect) to 100 (complete control); read-out: Wheat plant response rating
Summary of the method: as §4

corn = test: Test B pre-/postemergence herbicide test; assay type: in vivo, Zea mays
Summary of the method: as §3

blackgrass = test: Test B postemergence herbicide test; assay type: in vivo, Alopecurus myosuroides; details: Alopecurus myosuroides, post-emergence, 336 h, read-out: Blackgrass plant response rating
Summary of the method: as §1

[4] = 125 g ai/ha, 0 is no effect, 100 is complete control, preemergence
[5] = 0 is no effect, 100 is complete control, preemergence

Structure (SMILES): CCNC(=O)c1cccc(NC(=O)c2nn(C(C)(C)C)nc2CC)c1 [Compound 365, 2-(1,1-dimethylethyl)-5-ethyl-N-[3-[(ethylamino)carbonyl]phenyl]-2H-1,2,3-triazole-4-carboxamide]
- pest or weed control at 1000 g/ha [1]: 90%
- Plant response rating (0 to 100 scale), Barnyardgrass (barnyardgrass [2]; [4]): 90
- pest or weed control at 125 g/ha (barnyardgrass [2]; Echinochloa crus-galli, post-emergence, 125 g ai/ha, visual rating, scale 0 (no effect) to 100 (complete control), read-out: Barnyardgrass plant response rating): 0%
- pest or weed control at 500 g/ha (barnyardgrass [2]; Echinochloa crus-galli, post-emergence, postemergence, 500 g ai/ha, scale 0 to 100, 0 is no effect, 100 is complete control, read-out: Barnyardgrass plant response rating): 10%
- Plant response rating (0 to 100 scale), Crabgrass, Large (large crabgrass; [4]): 100
- pest or weed control at 125 g/ha (large crabgrass; Digitaria sanguinalis, post-emergence, 125 g ai/ha, visual rating, scale 0 (no effect) to 100 (complete control), read-out: Crabgrass, Large plant response rating): 0%
- pest or weed control at 500 g/ha (large crabgrass; Digitaria sanguinalis, post-emergence, postemergence, 500 g ai/ha, scale 0 to 100, 0 is no effect, 100 is complete control, read-out: Crabgrass, Large plant response rating): 80%
- Plant response rating (0 to 100 scale), Cocklebur (cocklebur; [4]): 10
- pest or weed control at 125 g/ha (cocklebur; Xanthium strumarium, post-emergence, 125 g ai/ha, visual rating, scale 0 (no effect) to 100 (complete control), read-out: Cocklebur plant response rating): 20%
- pest or weed control at 500 g/ha (cocklebur; Xanthium strumarium, post-emergence, postemergence, 500 g ai/ha, scale 0 to 100, 0 is no effect, 100 is complete control, read-out: Cocklebur plant response rating): 60%
- pest or weed control at 125 g/ha (wild oat): 30%
- Plant response rating (0 to 100 scale), Foxtail, Giant (giant foxtail; [4]): 100
- pest or weed control at 125 g/ha (giant foxtail; Setaria faberi, post-emergence, 336 h, 125 g ai/ha, visual rating, scale 0 (no effect) to 100 (complete control), read-out: Foxtail, Giant plant response rating): 20%
- pest or weed control at 500 g/ha (giant foxtail; Setaria faberi, post-emergence, 336 h, postemergence, 500 g ai/ha, scale 0 to 100, 0 is no effect, 100 is complete control, read-out: Foxtail, Giant plant response rating): 70%
- Plant response rating (0 to 100 scale), Surinam Grass (Surinam grass; [5]): 70
- pest or weed control at 125 g/ha (Surinam grass; Urochloa decumbens, post-emergence, visual rating, scale 0 (no effect) to 100 (complete control), read-out: Surinam Grass plant response rating): 10%
- Plant response rating (0 to 100 scale), Pigweed (pigweed; [5]): 100
- pest or weed control at 125 g/ha (pigweed; Amaranthus retroflexus, post-emergence, 336 h, visual rating, scale 0 (no effect) to 100 (complete control), read-out: Pigweed plant response rating): 40%
- pest or weed control at 1000 g/ha (ducksalad): 90%
- plant injury at 1000 g/ha (rice): 90%
- Plant response rating (0 to 100 scale), Morningglory (morningglory; [5]): 50
- pest or weed control at 125 g/ha (morningglory; Ipomoea, post-emergence, 336 h, visual rating, scale 0 (no effect) to 100 (complete control), read-out: Morningglory plant response rating): 80%
- pest or weed control at 1000 g/ha (barnyardgrass [3]): 90%
- Plant response rating (0 to 100 scale), Lambsquarters (lambsquarters; [5]): 100
- pest or weed control at 125 g/ha (lambsquarters; Chenopodium album, post-emergence, 336 h, visual rating, scale 0 (no effect) to 100 (complete control), read-out: Lambsquarters plant response rating): 90%
- Plant response rating (0 to 100 scale), Velvetleaf (velvetleaf; [5]): 50
- pest or weed control at 125 g/ha (velvetleaf; Abutilon theophrasti, post-emergence, 336 h, visual rating, scale 0 (no effect) to 100 (complete control), read-out: Velvetleaf plant response rating): 10%
- plant injury at 125 g/ha (wheat): 20%
- Plant response rating (0 to 100 scale), Corn (corn; [4]): 90
- plant injury at 125 g/ha (corn; Zea mays, post-emergence, 125 g ai/ha, visual rating, scale 0 (no effect) to 100 (complete control), read-out: Corn plant response rating): 0%
- plant injury at 500 g/ha (corn; Zea mays, post-emergence, postemergence, 500 g ai/ha, scale 0 to 100, 0 is no effect, 100 is complete control, read-out: Corn plant response rating): 20%
- pest or weed control at 125 g/ha (blackgrass; 125 g ai/ha, visual rating, scale 0 (no effect) to 100 (complete control)): 40%
- pest or weed control at 500 g/ha (blackgrass; postemergence, 500 g ai/ha, scale 0 to 100, 0 is no effect, 100 is complete control): 90%
